System: CARM1
Assay: 96-spot peptide array in vitro methylation, autoradiography
Assay type: biochemical, human
Details: 96-spot array, 3H-SAM, 30 °C
Text: Having corroborated the ability of CARM1 to methylate most of the detected substrates, we designed an additional 96-spot peptide array (Fig. 2e and Supplementary Data 3) with two purposes in mind: (1) to examine the significance of surrounding amino acids on CARM1-directed arginine dimethylation, particularly those mutated in human cancers; and (2) to measure PRMT specificity towards respective substrates. The selected sequences encompassed a mixture herein identified and predicted CARM1 substrates (in light blue) and representative cancer-relevant substrates, accompanied by the sequences harbouring mutations detected in human patients[38] (in blue). We also arbitrarily mutated the recognition sequence surrounding R1064 on BAF155 (ref. [20])—the known CARM1 methylation site—to assess the significance of surrounding amino-acid residues to CARM1 activity (four sequence in dark blue). The array also featured 17 known substrates of PRMT1 (in grey), 10 substrates of PRMT5 (in purple) and 4 substrates of PRMT6 (in pink) as positive controls for these enzymes.
The FL and N-terminal domain-deleted version of human CARM1 cDNAs, and other PRMT FL cDNAs were cloned into pFN21K Halo Tag CMV Flexi mammalian expression vector (Promega, Madison, WI) using the unique Sgfl and Pmel site[55]. To express the protein, DNA constructs were transiently transfected into HEK293T CARM1 KO cells in 15 cm dishes using transIT-LT1 reagent (Mirus Bio, Madison, WI) according to the manufacturer's protocol. Proteins were allowed to express for 48 h. Cell pellets were then collected and lysed in lysis buffer (50 mM HEPES, pH 7.5, 150 mM NaCl, 0.005% NP-40, 0.5 mM EDTA, supplemented with 1 × protease inhibitor cocktail before use). The cells were sonicated on ice using a Branson Sonifier 450 with a microtip at 35% amplitude (10 s on, 30 s off, 6 cycles). The crude lysate was cleared by centrifugation (15,000 r.p.m., 4 °C, 20 min). The cleared lysate was then mixed with pre-washed Halo Link resin (60 μl resin for a 15 cm dish) and incubated with rotation at room temperature for 2 h. The resin was then washed twice with lysis buffer, once with lysis buffer supplemented with 1 M urea and twice with lysis buffer. The recombinant proteins were then eluted with cleavage buffer (lysis buffer supplemented with 1 mM DTT and 20 μg ml^−1 TEV protease) with rotation at room temperature for 2 h. The resin was centrifuged at 3,000 r.p.m. for 5 min, and the supernatant containing the cleaved protein was collected and protein concentration was determined using the Bradford assay (Thermo Scientific, Rockford, IL). Protein purity was assessed by running SDS–PAGE and Coomassie Blue staining.
Purified recombinant enzyme and substrates were incubated in methylation buffer (50 mM Tris-HCl, pH 8.0, 100 mM NaCl and 0.5 mM EDTA) for 1–4 h at 30 °C in the presence of 1 μl radioactive S-adenosyl-L-[methyl-^3H] methionine. The reaction was stopped by adding 5 × SDS sample buffer and boiling at 99 °C for 5 min. Proteins were resolved by SDS–PAGE. The gel was stained with Coomassie Brilliant Blue (Coomassie Brilliant Blue R-250 0.05% w/v: methanol 50%: acetic acid 10%: H2O 40%) followed by de-staining with dye-free buffer. Fixed gel was then soaked with amplify (GE Healthcare, Waukesha, WI) with gentle shaking at room temperature for 30 min before drying on a Whatman paper at 80 °C and exposing to an X-ray film in dark at −80 °C. Protein methylation was detected by autoradiography.
For methylation assays using the peptide array, 16 or 20 μg purified recombinant CARM1 or same molar concentration of the other PRMTs (for 96-spot and 192-spot arrays, respectively) was mixed well with 40 μl radioactive S-adenosyl-L-[methyl-^3H] methionine, 80 μl 5 × methylation buffer and ddH2O to achieve a final volume of 200 or 400 μl reaction (for 96-spot and 192-spot arrays, respectively). The Celluspot peptide arrays were customized and produced by Intavis Bioanalytical Instruments, Germany. […]

Sequence | Methylation by CARM1 of mutated peptide vs wild-type sequence
VQSLCDTRFHFQQRA [TET2 (R680) G678D] | significantly reduced methylation by CARM1
PGNILGPRVALTAPN [BAF155 (R1064) P1066A] | nearly abolished methylation by CARM1
YGSQTPQRCPMTMQG [ARID1A (R429) Y430C] | significantly reduced methylation by CARM1
DPYRPVRLQMQKLPT [MED12 (R1862) P1864Q] | significantly reduced methylation by CARM1
PGNILAPRVPLTAPN [BAF155 (R1064) G1062A] | nearly abolished methylation by CARM1
PGNILGARVPLTAPN [BAF155 (R1064) P1063A] | nearly abolished methylation by CARM1
YGSQTPQRYQMTMQG [ARID1A (R429) P431Q] | significantly reduced methylation by CARM1

Source: paper PMC5458078, “Global mapping of CARM1 substrates defines enzyme specificity and substrate recognition” (Nature Communications, 2017)
